Laboratory results reported in ChEMBL document CHEMBL1125246, “Configuration and preferential solid-state conformations of perindoprilat (S-9780). Comparison with the crystal structures of other ACE inhibitors and conclusions related to structure-activity relationships” (J Med Chem, 1991).
pIC50: −log10 of the molar value.

The compounds below were run against T1, Angiotensin-converting enzyme (Oryctolagus cuniculus, UniProt P12822) (assay: In vitro activity against angiotensin I converting enzyme especially against Hip-His-Leu residues).
T1 sequence (P12822 whole entry): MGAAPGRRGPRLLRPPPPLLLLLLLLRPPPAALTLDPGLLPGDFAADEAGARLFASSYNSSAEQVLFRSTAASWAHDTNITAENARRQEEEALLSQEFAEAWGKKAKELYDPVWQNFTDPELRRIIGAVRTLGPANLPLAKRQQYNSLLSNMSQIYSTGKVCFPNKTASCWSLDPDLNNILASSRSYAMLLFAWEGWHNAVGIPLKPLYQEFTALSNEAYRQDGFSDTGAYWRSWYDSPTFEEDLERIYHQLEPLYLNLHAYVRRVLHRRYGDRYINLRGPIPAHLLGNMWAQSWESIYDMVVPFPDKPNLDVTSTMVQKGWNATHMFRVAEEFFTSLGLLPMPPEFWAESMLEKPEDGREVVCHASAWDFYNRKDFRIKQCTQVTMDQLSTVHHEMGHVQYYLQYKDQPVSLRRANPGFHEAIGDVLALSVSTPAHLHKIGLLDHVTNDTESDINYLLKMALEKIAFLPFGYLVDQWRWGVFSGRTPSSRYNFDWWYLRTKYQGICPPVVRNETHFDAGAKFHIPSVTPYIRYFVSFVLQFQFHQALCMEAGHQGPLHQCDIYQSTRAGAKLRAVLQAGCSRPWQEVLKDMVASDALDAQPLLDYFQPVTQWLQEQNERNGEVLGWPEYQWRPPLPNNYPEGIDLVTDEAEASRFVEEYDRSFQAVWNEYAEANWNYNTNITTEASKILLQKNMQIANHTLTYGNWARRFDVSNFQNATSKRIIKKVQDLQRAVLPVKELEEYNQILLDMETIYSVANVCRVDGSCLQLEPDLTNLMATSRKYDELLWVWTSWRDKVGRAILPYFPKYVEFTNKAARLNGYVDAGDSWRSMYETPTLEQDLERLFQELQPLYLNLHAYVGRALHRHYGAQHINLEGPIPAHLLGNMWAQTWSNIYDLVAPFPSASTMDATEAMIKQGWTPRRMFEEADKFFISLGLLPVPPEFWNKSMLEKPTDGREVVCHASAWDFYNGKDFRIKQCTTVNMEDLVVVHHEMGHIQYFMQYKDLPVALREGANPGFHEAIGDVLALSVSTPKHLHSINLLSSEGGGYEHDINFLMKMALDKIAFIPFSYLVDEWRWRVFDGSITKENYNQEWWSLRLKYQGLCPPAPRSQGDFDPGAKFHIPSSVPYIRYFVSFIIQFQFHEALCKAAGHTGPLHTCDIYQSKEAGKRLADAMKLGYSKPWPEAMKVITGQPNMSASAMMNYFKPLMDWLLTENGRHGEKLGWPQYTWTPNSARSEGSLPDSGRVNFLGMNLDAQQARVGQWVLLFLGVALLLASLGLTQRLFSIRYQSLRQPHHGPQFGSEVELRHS

`O=C(O)C1CCCN1C(=O)CCS` (stereo not given) and `O=C(O)[C@H](CCc1ccccc1)NCC(=O)N1CCC[C@H]1C(=O)O` are within 0.2 log units of each other in pIC50: 6.70 for the first, 6.64 for the second.

`CCC[C@H](NCC(=O)N1C2CCCCC2C[C@H]1C(=O)O)C(=O)O` (stereo not given in full) and `CCCC(N[C@@H](C)C(=O)N1C(C(=O)O)CC2CCCCC21)C(=O)O` (stereo not given in full) are within 0.2 log units of each other in pIC50: 8.72 for the first, 8.82 for the second.

`CCCC(N[C@H](C)C(=O)N1C(C(=O)O)CC2CCCCC21)C(=O)O` (stereo not given in full) showed a pIC50 of 5.96.
